A short description of data set [1]: Inhibition of PTP LAR-D1.
Data set [2] in a line: Inhibition of YPTP1.
Data set [3] concerns the target T1, Tyrosine-protein phosphatase non-receptor type 1 (Homo sapiens, UniProt P18031).
T1 sequence (P18031 whole entry): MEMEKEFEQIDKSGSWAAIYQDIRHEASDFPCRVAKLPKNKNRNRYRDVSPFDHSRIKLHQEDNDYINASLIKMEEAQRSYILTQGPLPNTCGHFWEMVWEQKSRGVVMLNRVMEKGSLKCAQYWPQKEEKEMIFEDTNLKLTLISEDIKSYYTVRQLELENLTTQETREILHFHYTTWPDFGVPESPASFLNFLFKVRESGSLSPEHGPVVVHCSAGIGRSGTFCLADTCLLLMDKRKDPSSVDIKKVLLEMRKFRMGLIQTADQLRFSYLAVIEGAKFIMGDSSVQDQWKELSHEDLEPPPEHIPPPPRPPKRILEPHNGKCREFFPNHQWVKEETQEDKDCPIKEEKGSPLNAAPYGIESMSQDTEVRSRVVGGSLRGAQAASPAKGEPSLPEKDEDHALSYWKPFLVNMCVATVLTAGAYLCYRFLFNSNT
The experiment in a line: Inhibition of PTP1B.

For data set [4], the target named is T2, Tyrosine-protein phosphatase non-receptor type 2 (Homo sapiens, UniProt P17706).
T2 sequence (P17706 whole entry): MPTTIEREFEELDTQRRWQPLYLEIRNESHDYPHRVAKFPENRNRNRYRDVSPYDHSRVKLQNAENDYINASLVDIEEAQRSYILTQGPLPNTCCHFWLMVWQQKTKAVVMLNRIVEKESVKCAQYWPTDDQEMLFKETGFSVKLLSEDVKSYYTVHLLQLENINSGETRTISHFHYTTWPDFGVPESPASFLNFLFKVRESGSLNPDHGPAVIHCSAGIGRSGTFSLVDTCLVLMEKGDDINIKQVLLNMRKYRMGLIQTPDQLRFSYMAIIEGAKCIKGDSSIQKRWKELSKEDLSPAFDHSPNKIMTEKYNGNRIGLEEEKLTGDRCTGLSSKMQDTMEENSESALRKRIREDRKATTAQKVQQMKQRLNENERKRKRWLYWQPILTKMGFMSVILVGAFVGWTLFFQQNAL
In words: Inhibition of TC-PTP.

The nature of data set [5]: Inhibition of PTP YOP.
The target in data set [6] is Tyrosine-protein phosphatase non-receptor type 6 (Homo sapiens, UniProt P29350). In words: Inhibition of PTP SHP1.
Chain of Tyrosine-protein phosphatase non-receptor type 6 (P29350 whole entry): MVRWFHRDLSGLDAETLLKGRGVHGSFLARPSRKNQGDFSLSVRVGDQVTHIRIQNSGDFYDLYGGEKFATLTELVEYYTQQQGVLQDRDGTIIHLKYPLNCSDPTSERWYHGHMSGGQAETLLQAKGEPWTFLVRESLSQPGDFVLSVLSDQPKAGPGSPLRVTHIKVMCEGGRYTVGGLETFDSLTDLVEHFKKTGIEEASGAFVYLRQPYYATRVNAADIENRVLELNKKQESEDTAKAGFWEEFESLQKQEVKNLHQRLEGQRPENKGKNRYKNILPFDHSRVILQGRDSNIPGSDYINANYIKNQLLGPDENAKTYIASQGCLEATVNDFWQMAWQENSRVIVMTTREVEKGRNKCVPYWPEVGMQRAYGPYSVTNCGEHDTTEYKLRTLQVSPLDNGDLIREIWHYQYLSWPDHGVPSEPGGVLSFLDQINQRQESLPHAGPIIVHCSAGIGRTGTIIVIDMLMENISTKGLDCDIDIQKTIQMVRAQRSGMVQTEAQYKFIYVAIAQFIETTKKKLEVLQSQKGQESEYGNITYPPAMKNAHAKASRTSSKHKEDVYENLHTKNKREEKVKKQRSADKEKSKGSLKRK
The test system of data set [7] is Mus musculus. In words: Toxicity in liver of high fat diet fed C57BL/6J Jms Slc mouse at 160 mg/day/kg for 4 weeks administered with diet. Particulars: in vivo, po, 672 h. Type of data set: organism-based.
For data set [8], the system named is Mus musculus. In words: Normalization of blood glucose level in high fat diet fed C57BL/6J Jms Slc mouse at 160 mg/day/kg administered with diet. Type of data set: functional, organism-based.
Data set [9] deals with Mus musculus. In words: Reduction in blood glucose level in high fat diet fed C57BL/6J Jms Slc mouse at 160 mg/day/kg administered with diet measured after 27 days. It is filed as functional, organism-based.
For data set [10], the system named is Mus musculus. In words: Toxicity in lungs of high fat diet fed mouse C57BL/6J Jms Slc at 160 mg/day/kg for 4 weeks administered with diet. It is filed as organism-based, Lung. Particulars: in vivo, po, 672 h.
The subject of data set [11] is Mus musculus. The experiment in a line: Toxicity in kidney of high fat diet fed C57BL/6J Jms Slc mouse at 160 mg/day/kg for 4 weeks administered with diet. Type of data set: organism-based. The settings on record: in vivo, po, 672 h.

pIC50: −log10 of the molar value. Activity calls are given as the source filed them. No cut-off for these calls is given here.

Take `COc1cc(/C=C/c2cc(C(=O)O)c(O)c(-c3ccco3)c2)ccc1/C=C/c1cc(C(=O)O)c(O)c(-c2ccco2)c1`: the pIC50 (usually −log10 of the IC50, conventionally taken in molar units) in data set [1] was 3.79; in [2] it was 5.00; in data set [3] it was 5.40; in data set [4] it was 4.96; in [5], 5.30; in data set [6] it was 5.22.

With `O=C(O)c1cc(/C=C/c2ccccc2)cc(-c2ccccc2)c1O`, the pIC50 was under 3.00 in data set [1]; 4.23 in [2]; 4.89 in [3]; 3.76 in data set [4]; 4.36 in data set [5]; 4.11 in data set [6].

With `O=C(O)c1ccc(/C=C/c2ccc(O)c(C(=O)O)c2)cc1O`, the pIC50 is under 2.70 in data set [1]; 3.43 in [2]; 4.49 in data set [3]; 3.25 in data set [4]; 3.76 in [5]; 3.64 in data set [6].

For the molecule `O=C(O)c1cc(/C=C/c2ccccc2)cc(Br)c1O`, the pIC50 in [1] was under 3.00; in data set [2] it was 3.82; in [3], 4.52; in data set [4], 3.76; in data set [5], 4.04; in data set [6], 3.85.

On to `O=C(O)c1cc(/C=C/c2cc(C(=O)O)c(O)c(-c3ccccc3)c2)ccc1O`, for which, in data set [3], the pIC50 was 3.90.

On to `O=C(O)c1cc(/C=C/c2ccc(/C=C/c3ccc(O)c(C(=O)O)c3)cc2)ccc1O`, for which the pIC50 in data set [1] was 3.38; in [2], 4.70; in [3], 5.30; in [4], 4.57; in data set [5] it was 4.89; in data set [6], 4.72.

As for `O=C(O)c1cc(/C=C/c2ccc(/C=C/c3cc(Br)c(O)c(C(=O)O)c3)cc2)cc(Br)c1O`, the Activity result in data set [7], in [10] and in [11] was “Non-toxic” throughout. Also, the pIC50 in [1] was under 3.52; in data set [2], 4.89; in data set [3], 5.52; in data set [4], 4.43; in data set [5] it was 5.00; in data set [6], 4.82. Further, the outcome in [8] and in data set [9] was Active.

Turning to `COc1c(C(=O)O)cc(/C=C/c2ccc(C(=O)O)c(O)c2)cc1-c1ccco1`, in data set [3], the pIC50 was 3.71.

In the case of `O=C(O)c1cc(-c2ccccc2)cc(Cc2cc(-c3ccccc3)cc(C(=O)O)c2O)c1O`, the pIC50 in data set [1] was under 2.70; in data set [2], 4.07.

Take `O=C(O)c1cc(/C=C/c2ccc(/C=C/c3cc(C(=O)O)c(O)c(-c4ccco4)c3)cc2)cc(-c2ccco2)c1O`: the pIC50 in data set [1] is under 3.70; in data set [2], 5.15; in [3], 6.28; in data set [4], 5.10; in [5] it was 5.30; in data set [6], 5.22.

As to `O=C(O)c1ccc(/C=C/c2cc(Br)c(O)c(C(=O)O)c2)cc1O`, the pIC50 in data set [3] was 4.19.

Regarding `O=C(O)c1cc(Cc2cc(C(=O)O)c(O)c(-c3ccccc3)c2)cc(-c2ccccc2)c1O`, the pIC50 in data set [1] was under 2.70; in [2] it was 3.63.

For `COc1cc(/C=C/c2cc(Br)c(O)c(C(=O)O)c2)ccc1/C=C/c1cc(Br)c(O)c(C(=O)O)c1`, the pIC50 is 3.38 in data set [1]; 4.68 in [2]; 5.22 in data set [3]; 4.49 in data set [4]; 4.92 in data set [5]; 5.00 in [6].

Take `O=C(O)c1cc(/C=C/c2ccccc2)ccc1O`: the pIC50 was under 2.70 in data set [1]; 3.94 in data set [2]; 4.47 in data set [3]; 3.63 in [4]; 4.21 in data set [5]; 3.90 in data set [6].

Molecule `Oc1ccc(/C=C/c2cc(O)cc(O)c2)cc1` [RESVERATROL] had a pIC50 in data set [3] of under 3.00.

These data come from ChEMBL document CHEMBL1151791, “Derivatives of 1,4-bis(3-hydroxycarbonyl-4-hydroxyl)styrylbenzene as PTP1B inhibitors with hypoglycemic activity” (Bioorg Med Chem, 2008).
